From patent publication US8772237B2, “Compositions and methods for counteracting effects of reactive oxygen species and free radicals” (Ischemix, Inc., priority 1999, dated 2014) come the findings set out here.

Test [1] concerns superoxide dismutase (SOD) protein. Nature of the test: Western immunoblot of SOD protein in rat brain primary cortical cultures. It is filed as cell-based. The note with it: for SOD: 5 hours at 37° C. How it is done: Primary cortical cultures were obtained by growing newborn rat brain cortical cells in Delbecco's modified Eagle medium supplemented with 25 μg/ml of gentamycin and 10% fetal calf serum. The cells were isolated from the E-21 cortex of rat brain, plated at a density of 1×10^5 per ml and grown to confluence within four to five days in an atmosphere containing air and 5% CO2 at 37° C. as described in Cornell-Bell et al., Science, 247: 470-473 (1990) and Cell Calcium, 12: 185-204 (1991). Cultures were grown in 20 ml flasks as a monolayer and then exposed to various concentrations of peptides for studies of the effects of peptides on upregulation of genes for SOD and CAT and on the transmigration of transcription factor AP-1 to cell nuclei. […]
(§1) Tissue culture experiments were carried out using primary cultures of rat brain cortical cells as previously described above in Example 2. Primary cultures from embryonic rat brain isolated at E-21 (21 day embryos) and incubated for five hours with various doses: 1, 10, 100 ng/ml of CMX-99672. Cytoplasmic proteins were isolated and analyzed for upregulation of SOD and CAT by Western immunoblots as described above. […] The Western blot was scanned to quantify the fold-increase in SOD production in cell cultures treated with the CMX-99672 peptide compound.
Representative peptide compounds were tested at various doses and compared for their ability to upregulate expression of genes for SOD and/or CAT in rat primary cortical cultures basically as described above. Cultures were incubated with a peptide compound for 5 hours at 37° C. Cytoplasmic protein fractions were prepared as described above. Cytoplasmic proteins were separated by gel electrophoresis and analyzed by Western immunoblots using antisera to SOD and CAT, respectively (Rockland, Inc., Gilbertsville, Pa.). […]
A general note: A western blot detects proteins with antibodies after separation by electrophoresis.

Test [2] concerns Superoxide Dismutase (SOD). Nature of the test: In vivo upregulation of SOD in rat organs (Western immunoblot). The note with it: for SOD Activity: 6-hour treatment, 10 mg/kg i.v. Also noted: species or system Sprague-Dawley rats. How it is done: In vivo experiments were carried out in Sprague-Dawley rats (300-325 g) with solutions of CMX-1152 or CMX-99672. The animals were injected intravenously (iv) via the tail vein with a peptide compound. […] The animals were sacrificed by decapitation at 6, 12, 24, 48, and 72 hours post injection and dissected to isolate brain, liver, heart, kidney, lung organs, which were frozen at −70° C. for subsequent analysis. In addition, 2 ml samples of whole blood were taken from each animal. Half (1 ml) of each sample was centrifuged to remove nuclei and cell membranes to yield plasma. The remaining half was stored frozen as whole blood at −70° C.
Each tissue was thawed and homogenized in a Down's homogenizer using ten volumes of homogenizer buffer (see, Adams et al., General Cellular Biochemistry, 77: 221-233 (2000); buffer as described in Adams et al., J. Leukoc. Biol., 62: 865-875 (1967)) to obtain a crude cytoplasmic fraction. The tissue homogenates were centrifuged (14,000×g for 5 minutes at 4° C.) to yield the supernatant purified cytoplasmic protein fractions as described in Adams et al. (J. Cell. Biochem., 77: 221-233 (2000)). A 10 μg sample of each protein fraction was then separated by SDS polyacrylamide gel electrophoresis (SDS-PAGE) and analyzed for SOD and CAT content by Western blot assay.
Control for measurement of unstimulated levels of SOD and CAT were obtained from two vehicle only (i.e., no peptide compound) injected rats that were sacrificed at 24 and 72 hours post injection. Both had essentially the same unstimulated levels of SOD and CAT. Standard quantities of each cytoplasmic fractions (10 μg) were loaded on a lane of a gel for electrophoretic separation and Western immunoblot analysis (Adams et al., J. Cell. Biochem., 77: 221-233 (2000)). The stained gels were photographed and scanned by laser densitometry to quantify intensities in comparison to enzyme levels for control vehicle treated rats.

For another test, the system named is catalase (CAT) protein. The experiment in a line: Western immunoblot of CAT protein in rat primary cortical cultures. It is filed as cell-based. The note with it: for CAT: 5 hours at 37° C. Here is the method: as §1
Representative peptide compounds were tested at various doses and compared for their ability to upregulate expression of genes for SOD and/or CAT in rat primary cortical cultures basically as described above. Cultures were incubated with a peptide compound for 5 hours at 37° C. Cytoplasmic protein fractions were prepared as described above. Cytoplasmic proteins were separated by gel electrophoresis and analyzed by Western immunoblots using antisera to SOD and CAT, respectively (Rockland, Inc., Gilbertsville, Pa.).

The test system of test [3] is transcription factor AP-1. Nature of the test: Electrophoretic mobility shift assay (EMSA) for AP-1 activation in primary rat neurons / cortical cultures. It is filed as cell-based. Here is the method: Nuclear extracts for electrophoretic mobility shift assays (EMSAs) were prepared as described previously (Adams et al., J. Leukocyte Biol., 62: 865-873 (1997)) using 1.0-2.0×10^7 cells per sample. All buffers were freshly supplemented with dithiothreitol (DTT, 0.5 mM), protease inhibitors: PMSF (0.5 mM), chymostatin, peptstatin-A, aprotinin, antipain, leupeptin (each at 1 μg/ml), and phosphatase inhibitors: NaF (10 mM), ZnCl2 (1 mM), sodium orthovanadate (1 mM), and sodium pyrophosphate (5 mM). Aliquots of the final dialyzates were stored at −80° C. and discarded after use.
AP-1 transcription factor activation was assayed using an electrophoretic mobility shift assay (EMSA), as described by Adams et al., J. Leukoc. Biol., 62:865-873 (1997)). Cultures of primary rat neurons (Cornell-Bell et al., Cell Calcium, 12: 185-204 (1991)) were stimulated for 3 hours with various concentrations (0, 1, 10, 100 ng/ml) of peptide CMX-9236. Nuclear extracts prepared as described above were separated by gel electophoresis on non-denaturing gels and subjected to the EMSA procedure. This EMSA used an AP-1 synthetic duplex probe (Angel, P., 1987, Cell 49:729-739) having the sequence 5′-[…] (SEQ ID NO:33) and its antisense copy (complement strand), which were end-labeled with P^32 using polynucleotide kinase and (γ-P^32)-ATP. For the EMSA reaction, the labeled probe (0.5 pmol) was mixed with 3 μg of nuclear extract protein in a solution containing 10 mM Tris-HCl, pH 7.5, 50 mM NaCl, 1 mM EDTA, 1 mM dithiothreitol, 5% glycerol, 0.02% β-mercaptoethanol, and 1 μg of poly-dI/dC (Pharmacia). Reaction mixtures were incubated at 25° C. for 20 minutes to allow complete complex formation by the duplex with its appropriate AP-1 protein. The mixture was then electrophoresed under non-denaturing conditions through 4% polyacrylamide gels in 0.5×TBE buffer (45 mM Trisma base, 45 mM boric acid, 1 mM EDTA). The gels were dried on 3 mm paper. Bands were visualized by autoradiography at −80° C. with one intensifying screen and quantified by laser densitometry. The upregulation of AP-1 and the activation and upregulation process of AP-1 was compared to control cultures.
Primary cortical cell cultures were grown to confluence and used in in vitro cultures for determining the effects of various representative peptide compounds on upregulation of AP-1. […] Extracts were prepared from the nuclei isolated from the primary culture homogenates, purified, and analyzed for the presence of specific transcription factors using the electrophoretic mobility shift assay (EMSA) method. The binding of ^32P-labeled duplex DNA probes specific for activator protein-1 (AP-1) or nuclear factor κB (NF-κB) was analyzed and quantified by autoradiography. After a 3-hour incubation of the cultures with 1 ng/ml of the peptide CMX-9236 there was a 15-fold increase of AP-1 relative to […] control cultures. […] Thus, a small peptide compound that is less than 20 amino acids long can simulate the properties of large growth factors such as NGF and BDNF, which exist as dimers of protein chains with molecular weights of 13,259 and 13,500, respectively.

The test system of test [4] is middle cerebral artery (MCA) permanent occlusion stroke model. The experiment in a line: Permanent MCA 24-hour occlusion stroke model. It is filed as in vivo, Sprague-Dawley rats.
Where [5] appears, read: five hours, doses 1, 10, 100 ng/ml.

Ends that are not written are not given here. * marks the point of attachment. Palmitoyl = CCCCCCCCCCCCCCCC(=O)*; Gga = not defined here

As for Asp Gly [CMX-1152], the SOD in test [1] (Dose 6.7 pmol/ml) stood at 2143 % Control. Moreover, the “SOD Upregulation” value in test [1] (Dose 1 ng/ml) was 170 % Control; in test [1] (Dose 10 ng/ml), 330 % Control; in test [1] (Dose 100 ng/ml) it was 420 % Control. Further, the “SOD Activity” value is 520 % of Control in test [2] (Brain); 550 % of Control in test [2] (Heart); 200 % of Control in test [2] (Kidney); 200 % of Control in test [2] (Liver); 520 % of Control in test [2] (Lung); 420 % of Control in test [2] (Plasma). Moreover, the “SOD Activity” value in test [2] (Whole Blood) is 490 % of Control. The “upregulation in SOD production relative to control” value is recorded as “four to five-fold” in test [2] (brain, heart, lung, and blood); “approximately two-fold” in test [2] (liver and kidney).

For Asp Gly [CMX-99672], in test [1] (setting [5]), the “increase in SOD” value is on record as “approximately 30 fold” and the “increase in SOD-related protein” value is on record as roughly 20 fold. In addition, the “upregulation of CAT (in words)” value in the test with catalase (CAT) protein (setting [5]) is on record as “Comparable data was obtained for CAT”.

Regarding KKDGDGDFA [CMX-9902], in test [1] (culture in vitro studies), the “upregulation of SOD proteins (in words)” value was “upregulated SOD proteins”. The “activation / upregulation of AP-1 (in words)” value in test [3] is “increased nuclear migration of AP-1”. Further, in test [4] (Dose 0.05 mg/hr), the “Percent Neurological Rescue” value was 35 ± 12% and the “Percent Rescue (percent decrease in infarct size vs vehicle controls)” value worked out at 29 ± 7%.

On to KKQTLQFR, for which the SOD in test [1] (Dose 95 pmol/ml) is listed as 350 % Control. The CAT in the test on catalase (CAT) protein (Dose 95 pmol/ml) turned out to be 400 % Control.

Substance “[Ac] Asp Gly Asp Gly Phe Ala (Ac-DGDGFA) [CMX-99655]” gave an SOD in test [1] (Dose 8 pmol/ml) of 750 % Control. Besides, the CAT in the test on catalase (CAT) protein (Dose 8 pmol/ml) came out at 520 % Control.

In test [1] (Dose 6.7 pmol/ml), [Ac] Thr Val Ser [CMX-99647] came in with an SOD of 2066 % Control.

For the substance “[DHA]-Lys Lys Asp Gly Asp Gly Asp Phe Ala Ile Asp Ala Pro Glu [CMX-9236D]”, in test [4] (Dose 0.03 mg/hr), the “Percent Neurological Rescue” value is recorded as 50 ± 18% and the “Percent Rescue (percent decrease in infarct size vs vehicle controls)” value is on record as 48 ± 12%.

Regarding “[Gga] Asp Gly Asp Gly Phe Ala (Gga-DGDGFA; not fully specified; printed as [Gga] Asp Gly Asp Gly Phe Ala; reading uncertain) [CMX-99661]”, the SOD in test [1] (Dose 6.7 pmol/ml) is listed as 463 % Control.

Regarding “[Palm] Asp Gly Asp Gly Phe Ala (Palmitoyl-DGDGFA) [CMX-9960]”, the SOD in test [1] (Dose 6.7 pmol/ml) is given as 527 % Control.
